Assay results: patent US5516889A, “Synthetic thrombin receptor peptides” (University Technologies International, Inc., priority 1995, dated 1996)
Residues, ends and D or L forms follow the SMILES beside them.

Key:
[1] = tested on: thrombin receptor (LM and RA assays); experiment: Activity of cyclic TRPs in the bioassays previously described (assay not specified); assay type: cell-based; settings: concentration tested 9 to 200 μM, differs per compound
Method: (§1) The guinea pig gastric longitudinal muscle (GLM) strips and the rat thoracic aorta (RA) ring preparations were isolated as previously described 14, 15. In brief, gastric LM strips (3×10 mm), obtained from male albino Hartley strain guinea pigs were equilibrated for about 1.5 h at 37° (in an aerated (95% O2 /5% CO2) Krebs-Henseleit buffer (3 mL) of the following composition (in mM): NaCl, 118; KCl, 4.7; CaCl2, 2.5; MgCl2, 1.2; NaHCO3, 25; KH2 PO4, 1.2; and glucose, 10. The pH was maintained at 7.4. Rat gastric LM strips (3×10 mm) were obtained, as for the GLM strips, from male albino Sprague Dawley animals (250-300 g). The stomach, opened along the greater curvature, was stripped free of all mucosal tissue under microscopic visualization and longitudinal tissue strips were cut exactly at right angles to the visible circular muscle bundles. Tissue strips were pre-equilibrated in the buffer described above. Each tissue was challenged twice each in succession at timed intervals with 50 nM carbachol (20 min intervals), 1 μM angiotensin-II (1 h intervals) and 95 μM (60 μg/mL) receptor pentapeptide (P5, SFLLR, SEQ ID NO: 2) (25 min intervals for GLM; 30-35 min for RLM); tissues were washed at 10 and 15 min after the additions of agonists. Contractions were monitored isometrically using Statham force-displacement transducers. […]
Thoracic RA rings (2 mm×3 mm), obtained from male albino Sprague Dawley rats, were equilibrated (about 1 h, 37° ) in the same organ bath buffer as was used for the LM tissue, and tension (baseline 1.0 g) was monitored isometrically using either Statham or Grass force-displacement transducers. […] Therefore, to construct concentration-effect curves and to normalize data between individual preparations, the relaxation responses to P5 and to the other TRPs were expressed as a percentage of the relaxation caused by 215 μM (137 μg/mL) of P5 (% P5215). For purposes of comparison, the same stock solutions of an individual peptide were evaluated, relative to P5, in both the RA and LM bioassays. […]
Cyclic TRPs were evaluated using the bioassays previously described.

[2] = molecular target: T1, thrombin receptor (rat gastric longitudinal muscle strips) (Rattus norvegicus, UniProt P26824); experiment: Rat gastric longitudinal muscle (RLM) strip contractile assay; assay type: cell-based
T1 construct: Rat gastric LM strips (3×10 mm) were obtained; from tissue; host or cells: rat (Sprague Dawley) gastric longitudinal muscle strips
T1 sequence (P26824 22-432): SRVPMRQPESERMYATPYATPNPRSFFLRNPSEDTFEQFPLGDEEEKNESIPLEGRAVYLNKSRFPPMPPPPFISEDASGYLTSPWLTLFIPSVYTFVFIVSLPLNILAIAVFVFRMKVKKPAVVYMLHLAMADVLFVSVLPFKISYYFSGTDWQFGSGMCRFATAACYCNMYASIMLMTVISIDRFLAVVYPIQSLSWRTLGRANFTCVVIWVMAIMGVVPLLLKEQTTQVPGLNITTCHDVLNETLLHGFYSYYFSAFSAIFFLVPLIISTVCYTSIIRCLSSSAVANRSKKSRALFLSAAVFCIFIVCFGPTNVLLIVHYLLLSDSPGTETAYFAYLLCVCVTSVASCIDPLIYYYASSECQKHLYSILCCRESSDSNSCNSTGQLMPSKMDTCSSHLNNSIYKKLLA
Excerpt: We obtained an evaluation of the potencies of the various TRPs, relative to P5, by using the linear portions of the concentration-effect curves, so as to calculate for several response levels the average ratio of concentrations (REC) of an individual TRP, relative to concentration of P5 that caused the same contractile response (i.e. REC =ECTRP .div.ECPS). […] In the RA assay, a similar approach to the estimate of relative potencies (REC S) was used, even though all agonists, except for P5--OCH3, appeared to cause equivalent maximal relaxation (FIG. 2, lower).
The guinea pig gastric longitudinal muscle (GLM) strips and the rat thoracic aorta (RA) ring preparations were isolated as previously described 14, 15. In brief, gastric LM strips (3×10 mm), obtained from male albino Hartley strain guinea pigs were equilibrated for about 1.5 h at 37° (in an aerated (95% O2 /5% CO2) Krebs-Henseleit buffer (3 mL) of the following composition (in mM): NaCl, 118; KCl, 4.7; CaCl2, 2.5; MgCl2, 1.2; NaHCO3, 25; KH2 PO4, 1.2; and glucose, 10. The pH was maintained at 7.4. Rat gastric LM strips (3×10 mm) were obtained, as for the GLM strips, from male albino Sprague Dawley animals (250-300 g). The stomach, opened along the greater curvature, was stripped free of all mucosal tissue under microscopic visualization and longitudinal tissue strips were cut exactly at right angles to the visible circular muscle bundles. Tissue strips were pre-equilibrated in the buffer described above. Each tissue was challenged twice each in succession at timed intervals with 50 nM carbachol (20 min intervals), 1 μM angiotensin-II (1 h intervals) and 95 μM (60 μg/mL) receptor pentapeptide (P5, SFLLR, SEQ ID NO: 2) (25 min intervals for GLM; 30-35 min for RLM); tissues were washed at 10 and 15 min after the additions of agonists. Contractions were monitored isometrically using Statham force-displacement transducers. Only tissues responding well to all three agonists were used further for the evaluation of the biological activities of P5 and other peptide agonists. For the GLM and RLM assays, concentration-effect curves for all peptides were constructed by expressing the response of each agonist as a percentage (% P595) relative to the contraction caused by 95 μM (60 μg/mL) P5 (0.9±0.1 g tension: mean ±S.E.M. for n=12 in the GLM; 1.6±0.9 g tension: mean ±S.E.M. for n=36 in the RLM).
Weighed peptide samples were routinely dissolved in 50 mM phosphate buffer, pH 7.4, to yield stock solutions, from which volumes of up to 0.2 mL were added directly to the organ bath; the concentrations of all stock solutions used were verified by quantitative amino acid analysis of aliquots. Pr-P4 and Pr-P4--NH2 were dissolved in 40 mM phosphate buffer, pH 7.4, containing 20% v/v absolute ethanol (i.e. 8 Vol of the above 50 mM phosphate buffer +2 Vol. ethanol). Control aliquots of the ethanol-containing phosphate buffer alone had no effect on either of the bioassay systems. Acetylcholine, carbachol, indomethacin, noradrenaline and angiotensin-II and thrombin (human, 3000 to 4000 U/mg; 1 U/mL.perspectiveto.10 nM) were from Sigma (St. Louis, Mo.); genistein (GS) was from ICN Biochemicals, Costa Mesa, Calif. Tyrphostin (TP) (RG 50864, also designated AG213) was obtained through the courtesy of Dr. R. R. Swillo, Rhone-Poulenc Rorer (Collegeville, Pa). […] Indomethacin was dissolved in ethanol, such that the final ethanol concentration in the organ bath was at or lower than 0.01% v/v; this concentration of ethanol alone had no effect on the bioassay systems.

[3] = molecular target: T2, thrombin receptor (guinea pig gastric longitudinal muscle strips) (Cavia porcellus, UniProt A0A286XH07); settings: for Relative potency (REC) GLM: average concentration ratio relative to P5 causing equal contractile response (REC = EC TRP ÷ EC P5)
T2 sequence (A0A286XH07 24-426): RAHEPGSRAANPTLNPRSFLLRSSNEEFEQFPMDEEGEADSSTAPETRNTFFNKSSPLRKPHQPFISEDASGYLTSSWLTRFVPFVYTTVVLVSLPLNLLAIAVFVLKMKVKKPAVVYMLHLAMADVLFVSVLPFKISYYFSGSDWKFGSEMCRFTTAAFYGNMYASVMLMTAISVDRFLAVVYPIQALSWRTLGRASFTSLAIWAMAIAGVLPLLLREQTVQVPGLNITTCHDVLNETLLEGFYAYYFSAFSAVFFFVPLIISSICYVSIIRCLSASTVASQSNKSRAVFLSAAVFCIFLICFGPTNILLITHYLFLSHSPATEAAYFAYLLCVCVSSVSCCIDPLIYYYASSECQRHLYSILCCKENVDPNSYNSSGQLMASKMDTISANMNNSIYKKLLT
Method: The guinea pig gastric longitudinal muscle (GLM) strips and the rat thoracic aorta (RA) ring preparations were isolated as previously described 14, 15. In brief, gastric LM strips (3×10 mm), obtained from male albino Hartley strain guinea pigs were equilibrated for about 1.5 h at 37° (in an aerated (95% O2 /5% CO2) Krebs-Henseleit buffer (3 mL) of the following composition (in mM): NaCl, 118; KCl, 4.7; CaCl2, 2.5; MgCl2, 1.2; NaHCO3, 25; KH2 PO4, 1.2; and glucose, 10. The pH was maintained at 7.4. Rat gastric LM strips (3×10 mm) were obtained, as for the GLM strips, from male albino Sprague Dawley animals (250-300 g). The stomach, opened along the greater curvature, was stripped free of all mucosal tissue under microscopic visualization and longitudinal tissue strips were cut exactly at right angles to the visible circular muscle bundles. Tissue strips were pre-equilibrated in the buffer described above. Each tissue was challenged twice each in succession at timed intervals with 50 nM carbachol (20 min intervals), 1 μM angiotensin-II (1 h intervals) and 95 μM (60 μg/mL) receptor pentapeptide (P5, SFLLR, SEQ ID NO: 2) (25 min intervals for GLM; 30-35 min for RLM); tissues were washed at 10 and 15 min after the additions of agonists. Contractions were monitored isometrically using Statham force-displacement transducers. Only tissues responding well to all three agonists were used further for the evaluation of the biological activities of P5 and other peptide agonists.

[4] = HPLC analysis of peptide recovered from RLM and RA organ bath solution; assay type: in vitro ADME, rat; settings: just after peak of tissue response (5-10 min)
Method: As illustrated in FIG. 4 (lanes C and D), the organ bath solution withdrawn from either a RLM or RA assay (30-60 μg/mL P5 or 47.5 to 95 μM), just after the peak of tissue response, was subjected to analysis by HPLC and compared with a standard solution of P5 made immediately before HPLC analysis either in buffer alone or in buffer that had been exposed to tissue under the conditions of a bioassay. […] In FIG. 4, the peptide degradation products would have been eluted at retention times earlier than those of either P5 (17.33 min) or P5--NH2 (16.83 min).

[5] = tested on: thrombin receptor (gastric longitudinal muscle strips); experiment: Gastric longitudinal muscle (LM) assay, either or both GLM and RLM; assay type: cell-based
Method: LM: Either or both GLM and RLM
as §1, with “Each tissue was challenged twice each in succession at timed intervals with 50 nM carbachol (20 min intervals), 1 μM angiotensin-II (1 h intervals) and 95 μM (60 μg/mL) receptor pentapeptide (P5, SFLLR, SEQ ID NO: 2) (25 min intervals for GLM; 30-35 min for RLM); tissues were washed at 10 and 15 min after the additions of agonists.” left out
Weighed peptide samples were routinely dissolved in 50 mM phosphate buffer, pH 7.4, to yield stock solutions, from which volumes of up to 0.2 mL were added directly to the organ bath; the concentrations of all stock solutions used were verified by quantitative amino acid analysis of aliquots. […]

[6] = tested on: thrombin receptor (rat thoracic aorta rings, intact endothelium); settings: for Relative potency (REC) RA: average concentration ratio relative to P5 causing equal relaxation response (REC = EC TRP ÷ EC P5)
Method: Thoracic RA rings (2 mm×3 mm), obtained from male albino Sprague Dawley rats, were equilibrated (about 1 h, 37° ) in the same organ bath buffer as was used for the LM tissue, and tension (baseline 1.0 g) was monitored isometrically using either Statham or Grass force-displacement transducers. The presence of an intact endothelium was ascertained by monitoring a relaxation response to acetylcholine (ACh, 1 μM) in a preparation that was submaximally (EC75) contracted by 0.1 μM noradrenaline (NA) in the presence of 0.1 mM ascorbic acid (to preserve the catecholamine). Only tissues yielding a relaxation concentration-response curve between 0.01 and 10 μM acetylcholine (maximal relaxation of 70 to 90%, relative to the tension developed by 0.1 μM NA) were used for the further evaluation of the receptor-derived peptides. The assay of TRP responsiveness was done (e.g. see FIG. 1) on tissues that were precontacted with 0.1 μM NA at 30 min time intervals. Tissues were washed approx. 5 min after the application of TRPs. […] For purposes of comparison, the same stock solutions of an individual peptide were evaluated, relative to P5, in both the RA and LM bioassays. When possible, both assays were done simultaneously on the same day.
Weighed peptide samples were routinely dissolved in 50 mM phosphate buffer, pH 7.4, to yield stock solutions, from which volumes of up to 0.2 mL were added directly to the organ bath; the concentrations of all stock solutions used were verified by quantitative amino acid analysis of aliquots. Pr-P4 and Pr-P4--NH2 were dissolved in 40 mM phosphate buffer, pH 7.4, containing 20% v/v absolute ethanol (i.e. 8 Vol of the above 50 mM phosphate buffer +2 Vol. ethanol). […] Indomethacin was dissolved in ethanol, such that the final ethanol concentration in the organ bath was at or lower than 0.01% v/v; this concentration of ethanol alone had no effect on the bioassay systems.

[7] = tested on: platelets; settings: reported previously; cited from earlier work

In the case of `CC(C)C[C@@H]1NC(=O)[C@H](Cc2ccccc2)NC(=O)[C@H](CO)NC(=O)[C@H](CCCNC(=N)N)NC(=O)[C@H](CC(C)C)NC1=O`, the “Activity relative to SFLLR (SEQ ID NO:2) (P-5) (ECcyclic /ECP-5)” value [1] is reported as “not active at this concentration”.
In the case of `CC(C)C[C@@H]1NC(=O)[C@H](Cc2ccccc2)NC(=O)CNC(=O)[C@H](CCCNC(=N)N)NC(=O)[C@H](CC(C)C)NC1=O` (cyclo(FLLRG)), the “Activity relative to SFLLR (SEQ ID NO:2) (P-5) (ECcyclic /ECP-5)” value [1] is reported as 4.
For `CC(C)C[C@H](NC(=O)[C@H](CC(C)C)NC(=O)[C@H](Cc1ccccc1)NC(=O)[C@@H](N)CO)C(=O)N[C@@H](CCCNC(=N)N)C(N)=O` [P5-NH-2, S42 FLLR46 -amide], the “Relative potency (REC) RLM” value [2] was 0.2, the “Desensitization on repeated administration” value ([3]; GLM) was “not” and the “Relative potency (REC) GLM” value [3] was 0.1. The “Recovery of intact peptide from organ bath (HPLC)” value (“Recovery of intact peptide” for short) ([4]; RA organ bath) was “recovered essentially intact”, the “Recovery of intact peptide” value ([4]; RLM organ bath) was “recovered essentially intact” and the Desensitization [5] was “did not”. For the same compound, the “Agonist (relaxation) activity” value ([6]; RA, precontracted with 0.1 μM noradrenaline) was “transient relaxation” and the “Relative potency (REC) RA” value [6] was 0.1.
In the case of `CC(C)C[C@H](NC(=O)[C@H](CC(C)C)NC(=O)[C@H](Cc1ccccc1)NC(=O)[C@@H](N)CO)C(=O)N[C@@H](CCCNC(=N)N)C(=O)O` [P5, S42 FLLR46, reference compound], the “Relative potency (REC) RLM” value [2] is reported as 1, the “Relative potency (REC) GLM” value [3] is reported as 1 and the “Recovery of intact peptide” value ([4]; RA organ bath) is reported as “Quantitative recovery”. The “Recovery of intact peptide” value ([4]; RLM organ bath) was “essentially quantitative recovery” and the “Relative potency (REC) RA” value [6] was 1.
For `CC(C)C[C@@H]1NC(=O)[C@H](Cc2ccccc2)NC(=O)[C@H](CCCNC(=N)N)NC(=O)[C@H](CC(C)C)NC1=O` (cyclo(FLLR)), the “Activity relative to SFLLR (SEQ ID NO:2) (P-5) (ECcyclic /ECP-5)” value [1] was 2.
In the case of SFALR, the “Activity in platelets” value [7] is listed as “little impact on the activity”.
